Results reported in patent US5073565A, “Tetrazole ureas and thioureas and their use as ACAT inhibitors” (Warner-Lambert Company, priority 1990, dated 1991).

Target: T1, acyl-CoA: cholesterol acyltransferase (ACAT) (Oryctolagus cuniculus, UniProt G1SFD9)
T1 construct: tissue preparation containing rabbit intestinal microsomes; from tissue; host or cells: rabbit intestinal microsomes
T1 sequence (G1SFD9 1-524): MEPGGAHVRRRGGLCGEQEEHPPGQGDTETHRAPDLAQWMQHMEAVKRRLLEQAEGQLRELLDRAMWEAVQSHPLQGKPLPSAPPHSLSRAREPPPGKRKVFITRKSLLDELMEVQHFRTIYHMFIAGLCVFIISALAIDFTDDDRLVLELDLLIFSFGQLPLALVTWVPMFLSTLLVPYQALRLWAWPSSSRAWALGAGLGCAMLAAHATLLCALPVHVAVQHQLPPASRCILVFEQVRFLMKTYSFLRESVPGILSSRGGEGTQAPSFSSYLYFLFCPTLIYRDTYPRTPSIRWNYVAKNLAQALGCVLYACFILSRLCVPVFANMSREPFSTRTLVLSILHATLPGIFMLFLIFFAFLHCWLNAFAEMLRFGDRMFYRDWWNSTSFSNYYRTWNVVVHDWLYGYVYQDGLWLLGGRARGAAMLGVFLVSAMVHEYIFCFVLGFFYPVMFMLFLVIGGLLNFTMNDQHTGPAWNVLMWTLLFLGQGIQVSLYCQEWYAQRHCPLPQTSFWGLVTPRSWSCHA
Assay: in vitro ACAT inhibition (radiolabeled cholesterol oleate formed from radiolabeled oleic acid, rabbit intestinal microsomes)
Assay type: biochemical
Settings: read-out: IC50 (concentration of test compound required to inhibit the activity of the enzyme by 50%)
Procedure: The ability of representative compounds of the present invention to inhibit ACAT was measured using an in vitro test more fully described in Field, F. J. and Salone, R. G., Biochemica et Biophysica, 712:557-570 (1982). The test assesses the ability of a test compound to inhibit the acylation of cholesterol by oleic acid by measuring the amount of radiolabeled cholesterol oleate formed from radiolabeled oleic acid in a tissue preparation containing rabbit intestinal microsomes.
The data appear in Table I where they are expressed in IC50 values; i.e., the concentration of test compound required to inhibit the activity of the enzyme by 50%.
CC(C)c1cccc(C(C)C)c1NC(=O)Nc1nnnn1CCc1ccccc1 [Example 21] showed an IC50 of 327 nM.
CC(C)c1cccc(C(C)C)c1NC(=O)Nc1nnn(CCCCCCCCCCOC2CCCCO2)n1 (stereo not shown) [Example 7] showed an IC50 of 12 nM.
For CCCCCCn1nnc(NC(=O)Nc2c(C(C)C)cccc2C(C)C)n1 [Example 23, N-[2,6-Bis(1-methylethyl)phenyl]-N'-(2-hexyl-2H-tetrazol-5-yl)urea], the IC50 was 73 nM.
CCCCCCCCCCn1nnnc1NC(=O)Nc1c(C(C)C)cccc1C(C)C [Example 20] showed an IC50 of 180 nM.
CC(C)c1cccc(C(C)C)c1NC(=O)Nc1nnnn1Cc1ccccc1 [Example 19, N-[2,6-Bis(1-methylethyl)phenyl]-N'-(1-phenylmethyl-1H-tetrazol-5-yl)urea] showed an IC50 of 300 nM.
CCCCCCCCCCn1nnc(NC(=O)Nc2c(C(C)C)cccc2C(C)C)n1 [Example 24, N-[2,6-Bis(1-methylethyl)phenyl]-N'-(2-decyl-2H-tetrazol-5-yl)urea] showed an IC50 of 14 nM.
CCCCn1nnc(NC(=O)Nc2c(C(C)C)cccc2C(C)C)n1 [Example 11, N-[2,6-Bis(1-methylethyl)-phenyl]-N'-(2-butyl-2H-tetrazol-5-yl)urea] showed an IC50 of 92 nM.
Work on CC(C)c1cccc(C(C)C)c1NC(=O)Nc1nnn(CCCCCCCCCCCCO)n1 [1 (d), N-[2,6-Bis(1-methylethyl)phenyl]-N'-[2-(12-hydroxy-dodecyl)-2H-tetrazol-5-yl] urea] yielded an IC50 of 21 nM.
Work on CC(C)c1cccc(C(C)C)c1NC(=O)Nc1nnn(Cc2ccccc2)n1 [Example 17, N-[2,6-Bis(1-methylethyl)phenyl]-N'-(2-phenylmethyl-2H-tetrazol-5-yl)urea] yielded an IC50 of 370 nM.
In the case of CCCCCCCCn1nnc(NC(=O)Nc2c(C(C)C)cccc2C(C)C)n1 [Example 22, N-[2,6-Bis(1-methylethyl)phenyl]-N'-(2-octyl-2H-tetrazol-5-yl)urea], the IC50 is reported as 59 nM.
With CC(C)c1cccc(C(C)C)c1NC(=O)Nc1nnn(CCCCCCCCCCCCOC2CCCCO2)n1 (stereo not shown) [1 (c)] the IC50 was 36 nM.
With CCCCCCCCCCCn1nnc(NC(=O)Nc2c(C(C)C)cccc2C(C)C)n1 [Example 10, N-[2,6-Bis(1-methylethyl)-phenyl]-N'-(2-undecyl-2H-tetrazol-5-yl)urea] the IC50 was 9 nM.
Molecule CC(C)c1cccc(C(C)C)c1NC(=O)Nc1nnn(CCCCCCCCCCO)n1 [Example 15, N-[2,6-Bis(1-methylethyl)phenyl]-N'-[2-(10-hydroxy-decyl)-2H-tetrazol-5-yl]urea] has an IC50 of 72 nM.
CCCCCCCCCCCCCn1nnc(NC(=O)Nc2c(C(C)C)cccc2C(C)C)n1 [Example 4, N-[2,6-Bis(1-methylethyl)phenyl]-N'-(2-tridecyl-2H-tetrazol-5-yl)urea] gave an IC50 of 9 nM.
With CCCCCCCCCCCCCCCCn1nnc(NC(=O)Nc2c(C(C)C)cccc2C(C)C)n1 [Example 6, N-[2,6-Bis(1-methylethyl)-phenyl]-N'-(2-hexadecyl-2H-tetrazol-5-yl)urea] the IC50 was 57 nM.
Molecule CCCCCCCCCCCCn1nnc(NC(=O)Nc2c(C(C)C)cccc2C(C)C)n1 [Example 5, N-[2,6-Bis(1-methylethyl)-phenyl]-N'-(2-dodecyl-2H-tetrazol-5-yl)urea] has an IC50 of 14 nM.
In the case of CCCCCCCCCCCCCCn1nnc(NC(=O)Nc2c(C(C)C)cccc2C(C)C)n1 [Example 3, N-[2,6-bis(1-methylethyl)phenyl]-N'-(2-tetradecyl-2H-tetrazol-5-yl)urea], the IC50 is reported as 12 nM.

Test system: not listed separately
Assay: in vivo screen designated APCC (total cholesterol in rats on PCC diet)
Parameters: species or system male Sprague-Dawley rats
Settings: rat, 50 (mg/dl), N/C means no change
Description: In one in vivo screen designated APCC, male Sprague-Dawley rats (200 to 225 g) were randomly divided into treatment groups and dosed at 4 PM with either vehicle (CMC/Tween) or suspensions of compounds in vehicle. The normal chow diet was then replaced with the PCC diet (5.5% peanut oil, 1.5% cholesterol, and 0.5% cholic acid). The rats consumed this diet a libitum during the night and were sacrificed at 8 AM to obtain blood samples for cholesterol analysis using standard procedures. Statistical differences between mean cholesterol values for the same vehicle were determined using analysis of variance followed by Fisher's least significant test. The results of this trail for representative compounds of the present invention appear in Table II wherein percent change means the difference in total cholesterol between control, and the drug-treated animals, and the (mg/dL) is the milligrams of compound per deciliter of vehicle administered. The milligrams are reflected parenthetically.
In the case of CC(C)c1cccc(C(C)C)c1NC(=O)Nc1nnn(Cc2ccccc2)n1 [Example 17, N-[2,6-Bis(1-methylethyl)phenyl]-N'-(2-phenylmethyl-2H-tetrazol-5-yl)urea], the “% Change (difference in total cholesterol between control and drug-treated animals)” value is reported as “N/C”.

Test system: not given
Assay: not given
Settings: J. Medicinal Chemistry 22, 28-32 (1979); cited from earlier work
In the case of CCOC(=O)c1ccc(NC(=O)Nc2nnn[nH]2)cc1 [N-(4-ethoxycarbonylphenyl)-N'-tetrazol-5-yl-urea], the antileukemic data is given as “inactive”.
